Experimental data from patent US8431402B2, “Method of high frequency regeneration of Sorghum” (Temasek Life Sciences Laboratory Limited, priority 2008, dated 2013).

Tested on: dissected embryonated cotyledon (DEC) explants of sweet sorghum hybrid varieties Liotian 1, Lioza 7050A and Liao Ji Za 1
Test: Regeneration of sorghum via organogenesis from dissected embryonated cotyledon (DEC) explants on stage 1-6 media
Format: cell-based, Sorghum bicolor (L.) Moench
Details: for phenolic exudates from the base of the shoot buds: added to stage 2 medium
Procedure: Seeds of sweet sorghum (Sorghum bicolor (L.) Moench) hybrid varieties Liotian 1, Lioza 7050A and Liao Ji Za 1 were obtained from Chinese National Center for Sorghum Improvement, Shenyang City, 110161, Liaoning Province, P.R. China. The viable seeds were washed in chlorohexidine surgical wash (two drops in 100 ml of sterile water) for five minutes and soaked in sterile water for two days at 4° C. in refrigerator. Later these imbibed seeds were further surface sterilized in 10% clorox solution (commercial bleach) for 10 minutes followed by washes with sterile water for five times. To ensure complete sterility, these seeds were rinsed again with 70% alcohol for 90 seconds and subsequently washed with sterile water three times before used as explants.
The radical tissues were completely removed from the dissected embryonated cotyledon (DEC) explants. After six weeks of culture, the SCPC from stage 1 medium were further injured and transferred to stage 2 medium (Table 1) and stage 3 medium (Table 1) at five and ten-day interval for shoot bud induction. Subsequently, the shoot buds developed on stage 3 medium were split into 8-10 clumps with each clumps containing three to five shoots and transferred to stage 4 medium (Table 1) for further shoot induction followed by stage 5 medium (Table 1) for shoot elongation at two-week intervals respectively. The elongated shoot clumps with 2-3 shoots (4 cm height) from stage 5 medium were transferred to stage 6 medium (Table 1) for root induction. The well developed and rooted plantlets were transferred for hardening after two weeks of culture.
The pH of the medium was adjusted to 5.8 with 1N NaOH or 1N HCl prior to the addition of 0.8% phytoagar (stages 1-5 media) or 0.25% phytogel (stage 6 medium) and sterilized by autoclaving at 121° C. for 20 minutes. Approximately 20 ml of sterilized medium was dispensed into sterilized Petri dish (90×15 mm size, plastic polycarbonate, Canada). The chemicals used for media preparations were of analytical grade (Duchefa Biochemie, Haarlem, The Netherlands and Sigma Aldrich, Inc., St Louis, USA). All the cultures were maintained at 25° C. 2° C. under white fluorescent tube lights, 16/8 h (light/dark) photoperiod period, light intensity of 25 μE m^−2s^−1 and with 55-60% relative humidity. The cultures were subcultured at two-week intervals during stage 1, five-day intervals in stages 2 and 3, followed by one-week intervals in stages 4 and 5, with no subculturing in stage 6.

| SMILES | phenolic exudates from the base of the shoot buds | germination of embryos attached to the cotyledons (present in stage 1 medium) | other results |
| --- | --- | --- | --- |
| O=[N+]([O-])[O-].[Ag+] [AgNO3] | prevented these phenolic exudates |  |  |
| NCC(=O)O [L-glycine] | prevented these phenolic exudates |  |  |
| O=C(O)COc1ccc(Cl)cc1Cl [2,4-D, 2,4-dichlorophenoxy acetic acid] |  |  | callus formation (present in stage 1 medium, 6.78 μM): induced callus formation |
| O=C(O)Cc1c[nH]c2ccccc12 [IAA, indole 3-acetic acid] |  |  | root induction (in stage 6 medium, 5.7 μM): induced roots within one week |
| O=C1O[C@H]([C@@H](O)CO)C(O)=C1O [Asc, ascorbic acid] | prevented these phenolic exudates |  |  |
| O=C(O)[C@@H]1CCCN1 [proline, L-proline] |  | inhibited germination of embryos |  |
| NC(=O)CC[C@H](N)C(=O)O [L-glutamine] |  | inhibited germination of embryos |  |
| CC1=CC(=O)CC(C)(C)[C@@]1(O)/C=C/C(C)=C\C(=O)O [ABA, abscisic acid] |  | inhibited germination of embryos |  |
